Publication PMC7397155, “Comparison of Chemotherapeutic Activities of Rhodamine-Based GUMBOS and NanoGUMBOS” (Molecules, 2020)
Each block holds one molecule with its values, some of them ahead of it.

Key:
MDA-MB-231 cancer cells = test: MTT cell viability assay, MDA-MB-231 breast cancer cells; type: cell-based, human; details: 48 h incubation
Protocol: (§1) Hormone-independent breast adenocarcinoma (MDA-MB-231), hormone-dependent breast adenocarcinoma (MCF7), human pancreatic carcinoma (Mia-Paca), and normal human fibroblast cell lines were purchased from American […] Culture Collection (ATCC, Manassas, VA, USA). Cell lines were cultured to 90% confluence using ATTC guidelines for cell culture prior to experimentation.
A 96 well plate was seeded with 5000 cells/well and incubated for 24 h to allow attachment. […] These compounds were then incubated into the cells for 48 h, followed by MTT assay to determine cell viability. Firstly, 15 µL of the MTT dye solution was incubated in the cells for 3 h. The MTT dye reacts with NADPH present in live cells to form an insoluble purple formazan product. Subsequently, 100 µL of a stop solution was added to solubilize this product and halt the enzymatic reaction between NADPH and MTT. Cells were then incubated with stop solution for 1 h. The absorbance of the formazan was then measured at 570 nm using a microplate spectrophotometer. Cell viability is reported as the ratio between experimental groups and a control normalized to 100%. All measurements were performed in triplicate measurements to obtain standard error, and the reported cell viability is the average of these measurements. The IC50 was calculated using the formula:
(§2) ((0.5−(f(a))×(b−a)+(f(b)−f(a))×a))/(f(b)−f(a)) where a is the concentration where the cell viability is above 50%, b is the concentration where the cell viability is below 50%, and f(a) and f(b) are respectively the cell viability percentages *0.01 at concentration a and b respectively.

MiaPaca cancer cells = test: MTT cell viability assay, MiaPaca pancreatic cancer cells; set-up: species or system human; details: 48 h incubation
Protocol: as §1
(§3) A 96 well plate was seeded with 5000 cells/well and incubated for 24 h to allow attachment. Serial dilution from 100 µM to 0 µM was performed for each compound. These compounds were then incubated into the cells for 48 h, followed by MTT assay to determine cell viability. Firstly, 15 µL of the MTT dye solution was incubated in the cells for 3 h. The MTT dye reacts with NADPH present in live cells to form an insoluble purple formazan product. Subsequently, 100 µL of a stop solution was added to solubilize this product and halt the enzymatic reaction between NADPH and MTT. Cells were then incubated with stop solution for 1 h. The absorbance of the formazan was then measured at 570 nm using a microplate spectrophotometer. Cell viability is reported as the ratio between experimental groups and a control normalized to 100%. All measurements were performed in triplicate measurements to obtain standard error, and the reported cell viability is the average of these measurements. The IC50 was calculated using the formula:
as §2

MCF7 cancer cells = test: MTT cell viability assay, MCF7 breast cancer cells; set-up: species or system human; details: 48 h incubation
Protocol: as §1, §3, §2

[1] = Octanol buffer partition coefficient; type: physicochemical; details: 1-octanol / pH 7.4 phosphate-citric acid buffer, 48 h stirring
Protocol: Into a 20 mL vial, 1-Octanol is mixed with a pH 7.4 phosphate-citric acid buffer and stirred overnight. The two layers were separated and then a calibration curve was generated for each compound in 1-octanol using various concentrations. The phosphate-citric acid buffer was then added to one of the concentrations (Ci) and this mixture was stirred for 48 h. Subsequently, absorbance in the octanol layer was measured and the concentration (Co) calculated using the calibration curves. Later, the equation Ci − C0 = Cw was used to calculate the aqueous concentration (Cw). The octanol–water partition coefficient was then calculated using the equation Kow = […]/Cw.

[2] = Zeta potential of nanoGUMBOS; type: physicochemical; details: nanoGUMBOS at physiological pH (7.4)
Text: Following examination of the hydrophobicity of these GUMBOS, nanoGUMBOS were synthesized using a simple reprecipitaiton method as described in the experimental section. TEM images in Figure 2 are a display of spherical nanoparticles with diameters of ~100 nm for both R123 and SNAFR.

Hs578Bst normal cells = test: MTT cell viability assay, Hs578Bst normal breast cells; type: cell-based, human; details: for IC50: RB and R110 GUMBOS and parent dyes, normal breast cells, 48 h incubation, MTT
Water solubility study = type: physicochemical; details: water solubility at physiological pH
Protocol: Approximately fifty milliliters of water were added to three milligrams of GUMBOS. Absorbance measurements were then acquired over time until the absorbance reached a plateau. A calibration curve for an aqueous solution of GUMBOS was then generated at a soluble concentration, and the slope of the curve was used to calculate the solubility concentration. The solubility constant (Ksp) was then calculated using this concentration.

[3] = R123- and SNAFR-5-based nanoGUMBOS and parent dyes
[4] = Homo sapiens, MDA-MB-231, 48 h, RB and R110 GUMBOS and parent dyes
[5] = RB and R110 GUMBOS and parent dyes

Structure (SMILES): COC(=O)c1ccccc1-c1c2ccc(=[NH2+])cc-2oc2cc(N)ccc12.c1ccc([B-](c2ccccc2)(c2ccccc2)c2ccccc2)cc1 [[R123][TPB]]
- IC50 (MDA-MB-231 cancer cells; [3]): 20.6 ± 3.5 µM
- IC50 (MiaPaca cancer cells; [3]): 2.5 ± 0.9 µM
- IC50 (MCF7 cancer cells; [3]): > 100 µM
- Log Kow [1]: 0.8
- Zeta Potential [2]: −16.5 ± 1.4 mV

Structure (SMILES): CCN(CC)c1ccc2c(-c3ccccc3C(=O)O)c3ccc(=[N+](CC)CC)cc-3oc2c1 [[RB][Cl], Rhodamine B chloride, reference compound]
- IC50 (MDA-MB-231 cancer cells; [4]): 291 ± 1.2 µM
- IC50 (Hs578Bst normal cells; Homo sapiens, Hs578Bst): 500 ± 5.2 µM
- Log Kow [1]: 1.1

- IC50 (MDA-MB-231 cancer cells; [4]): 781 µM
- IC50 (MDA-MB-231 cancer cells; [5]): 791.2 ± 2.7 µM
- Log Kow [1]: 0.22
- solubility thermodynamic (Water solubility study): > 700 µM
Structure (SMILES): N=c1ccc2c(-c3ccccc3C(=O)O)c3ccc(N)cc3oc-2c1 [[R110][Cl], rhodamine 110 chloride, reference compound]
- IC50 (Hs578Bst normal cells; Homo sapiens, Hs578Bst): 836.1 ± 5.3 µM

Structure (SMILES): CCN(CC)c1ccc2c(-c3ccccc3C(=O)O)c3ccc(=[N+](CC)CC)cc-3oc2c1.O=S(=O)([N-]S(=O)(=O)C(F)(F)C(F)(F)F)C(F)(F)C(F)(F)F [[RB][BETI]]
- IC50 (MDA-MB-231 cancer cells; [5]): 89.5 ± 3.4 µM
- IC50 (Hs578Bst normal cells): 540 ± 6.2 µM
- Log Kow [1]: 1.25

Structure (SMILES): COC(=O)c1ccccc1-c1c2ccc(N)cc2[o+]c2cc(N)ccc12.O=S(=O)([N-]S(=O)(=O)C(F)(F)C(F)(F)F)C(F)(F)C(F)(F)F [[R123][BETI]]
- IC50 (MDA-MB-231 cancer cells; [3]): 17.4 ± 3.7 µM
- IC50 (MiaPaca cancer cells; [3]): 1.6 ± 0.7 µM
- IC50 (MCF7 cancer cells; [3]): > 100 µM
- Log Kow [1]: 1.1
- Zeta Potential [2]: −16.8 ± 1.1 mV

Structure (SMILES): CCN(CC)c1ccc2c(-c3ccccc3C(=O)O)c3ccc(=[N+](CC)CC)cc-3oc2c1.c1ccc([B-](c2ccccc2)(c2ccccc2)c2ccccc2)cc1 [[RB][TPB]]
- IC50 (MDA-MB-231 cancer cells; [5]): 77.5 ± 5.7 µM
- IC50 (Hs578Bst normal cells): 533.7 ± 3.3 µM
- Log Kow [1]: 1.6

Structure (SMILES): COC(=O)c1ccccc1-c1c2ccc(=N)cc-2oc2cc(N)ccc12 [[R123][Cl], rhodamine 123, reference compound]
- IC50 (MDA-MB-231 cancer cells; Homo sapiens, MDA-MB-231, R123- and SNAFR-5-based nanoGUMBOS and parent dyes): 24.3 ± 2.2 µM
- IC50 (MiaPaca cancer cells; Homo sapiens, MIA PaCa-2, R123- and SNAFR-5-based nanoGUMBOS and parent dyes): 3.1 ± 1.1 µM
- IC50 (MCF7 cancer cells; Homo sapiens, MCF7, R123- and SNAFR-5-based nanoGUMBOS and parent dyes): > 100 µM
- Toxicity towards Hs578Bst normal cells (Hs578Bst normal cells; result in words, Figure 6): slight toxicity towards normal cells
- Log Kow [1]: 0.25
